Results from patent publication US20230270713A1, “Administration of Resiniferatoxin For Treatment of Bladder Pain or Bladder Cancer” (Sorrento Therapeutics, Inc., priority 2020, published 2023).

Tested on: cats with FIC (Feline Idiopathic Cystitis)
Experiment: Cystitis Events Survey in cats with Feline Idiopathic Cystitis
Format: in vivo, cat
Settings: for Cystitis Improvement ≥2 Point, cats n/N / Cystitis Improvement ≥3 Point, cats n/N / Cystitis Improvement ≥2 Point, percent of cats / Cystitis Improvement ≥3 Point, percent of cats: Day 28
From the text: The Cystitis Events Survey consists a 5-point scale, ranging from 0=normal cat to 5=very severe sign of cystitis. Clinical signs of cystitis included in this survey are: increased frequency of urination; straining while urinating; crying out/vocalizing while urinating; presence of blood in urine; urination outside of litter box; and increased grooming around perineum.
The use of the Cystitis Events Survey was exploratory, and no strict definition of success was applied to the results. However, and based on published literature, the results were described as follows: (1) percentage of cats per cohort with an average improvement of 2 or more points and no increase in any individual score on Day 28; and (2) percentage of cats per cohort with an average improvement of 3 or more points and no increase in any individual score on Day 28.
[…] Intravesical instillation: After the cat has reached an adequate anesthesia level, the perineal area was prepared using a standard aseptic technique. After preparation, a urinary catheter (type and size decided on a case by case basis) was placed using aseptic technique. Then, the urinary bladder was emptied and flushed with 20 ml of sterile saline. Once the flush solution was removed, the RTX solution was infused through the urinary catheter over 2 minutes. Once the total volume of the solution is infused, the solution was left in the urinary bladder for 20 min. At the end of this period the IVP (investigational veterinary product) solution was removed. Finally, the urinary catheter was removed, and the perineal area was flushed with 20 ml of saline. The total amount of solution removed from the bladder was recorded.
24 cats were treated and the cohorts and their respective IVP treatments are described in the table 9 below. The cohorts were populated and dosed sequentially. Cats enrolled in Cohorts 2, 3 and 4 were dosed at least 3 days after the previous cohort closed.

[1] = 6.25 μg (0.25 μg/mL), Day 0, n 6
[2] = 6.25 μg (0.25 μg/mL), Day 28, n 6
[3] = 12.5 μg (0.5 μg/mL), Day 0, n 6
[4] = 12.5 μg (0.5 μg/mL), Day 28, n 5
[5] = 12.5 μg (1.25 μg/mL), Day 0, n 6
[6] = 12.5 μg (1.25 μg/mL), Day 28, n 6

SMILES: C=C(C)[C@]12C[C@@H](C)[C@@]34O[C@](Cc5ccccc5)(O[C@@H]1[C@@H]3C=C(COC(=O)Cc1ccc(O)c(OC)c1)C[C@]1(O)C(=O)C(C)=C[C@@H]41)O2 [RTX, resiniferatoxin]
- cystitis events survey, Maximum [1]: 18.0
- cystitis events survey, Mean [1]: 13.00
- cystitis events survey, Median [1]: 12.00
- cystitis events survey, Minimum [1]: 10.0
- cystitis events survey, Maximum [2]: 14.0
- cystitis events survey, Mean [2]: 8.33
- cystitis events survey, Median [2]: 8.00
- cystitis events survey, Minimum [2]: 3.0
- Cystitis Improvement ≥2 Point, cats n/N (6.25 μg/25 mL (Cohort 2)): 4/6
- Cystitis Improvement ≥3 Point, cats n/N (6.25 μg/25 mL (Cohort 2)): 2/6
- cystitis events survey, Maximum [3]: 13.0
- cystitis events survey, Mean [3]: 11.33
- cystitis events survey, Median [3]: 11.00
- cystitis events survey, Minimum [3]: 10.0
- cystitis events survey, Maximum [4]: 7.0
- cystitis events survey, Mean [4]: 5.20
- cystitis events survey, Median [4]: 5.00
- cystitis events survey, Minimum [4]: 3.0
- cystitis events survey, Maximum [5]: 16.0
- cystitis events survey, Mean [5]: 12.5
- cystitis events survey, Median [5]: 12.50
- cystitis events survey, Minimum [5]: 9.0
- cystitis events survey, Maximum [6]: 8.0
- cystitis events survey, Mean [6]: 5.33
- cystitis events survey, Median [6]: 6.00
- cystitis events survey, Minimum [6]: 3.0
- Cystitis Improvement ≥2 Point, cats n/N (12.5 μg/10 mL (Cohort 4)): 6/6
- Cystitis Improvement ≥2 Point, percent of cats (12.5 μg/10 mL (Cohort 4)): (100%)
- Cystitis Improvement ≥3 Point, cats n/N (12.5 μg/10 mL (Cohort 4)): 6/6
- Cystitis Improvement ≥3 Point, percent of cats (12.5 μg/10 mL (Cohort 4)): (100%)
- Cystitis Improvement ≥2 Point, cats n/N (12.5 μg/25 mL (Cohort 3)): 5/5
- Cystitis Improvement ≥2 Point, percent of cats (12.5 μg/25 mL (Cohort 3)): (100%)
- Cystitis Improvement ≥3 Point, cats n/N (12.5 μg/25 mL (Cohort 3)): 5/5
- Cystitis Improvement ≥3 Point, percent of cats (12.5 μg/25 mL (Cohort 3)): (100%)
- cystitis events survey, Maximum (25 μg (1 μg/mL), Day 0, n 6): 22.0
- cystitis events survey, Mean (25 μg (1 μg/mL), Day 0, n 6): 16.67
- cystitis events survey, Median (25 μg (1 μg/mL), Day 0, n 6): 16.50
- cystitis events survey, Minimum (25 μg (1 μg/mL), Day 0, n 6): 11.0
- cystitis events survey, Maximum (25 μg (1 μg/mL), Day 28, n 5): 7.0
- cystitis events survey, Mean (25 μg (1 μg/mL), Day 28, n 5): 4.40
- cystitis events survey, Median (25 μg (1 μg/mL), Day 28, n 5): 4.00
- cystitis events survey, Minimum (25 μg (1 μg/mL), Day 28, n 5): 2.0
- Cystitis Improvement ≥2 Point, cats n/N (25 μg/25 mL (Cohort 1)): 4/5
- Cystitis Improvement ≥2 Point, percent of cats (25 μg/25 mL (Cohort 1)): (80%)
- Cystitis Improvement ≥3 Point, cats n/N (25 μg/25 mL (Cohort 1)): 4/5
- Cystitis Improvement ≥3 Point, percent of cats (25 μg/25 mL (Cohort 1)): (80%)
